Values after ≈ are worked out from the molar mass of the structure shown. Peptide text beside a SMILES is read from it.

Data set [1] is described as follows: Stability study of milled CSP7 (ammonium counterion): geometric particle size distribution (Sympatec HELOS, RODOS). Type of data set: physicochemical. The conditions noted are these: not stored (Unprocessed / Initial). The protocol: (§1) Stability study for milled CSP7 (ammonium counterion) from Lot #UTA181028. The stability of milled CSP7 powder was investigated under different storage conditions for a period of up to 6 months. Milled CSP7 peptide is packaged as two forms, bulk milled powder and encapsulated milled powder. For storage as bulk milled powder, 0.21-0.24 g peptide is filled in 20 mL scintillation vials (Kimble®, DWK Life Sciences, Millville, N.J., US) and stored within a heat-sealed foil pouch (Impak Corp, Los Angeles, Calif., US) containing two bags of 1 g silica gel desiccant (Tyvek®, Sorbco Packaging LLC, Belen, N. Mex., US) in each pouch. Milled peptide powder is also encapsulated in size 3 HPMC capsules (Capsugel, Morristown, N.J., US) in a weight of about 11±5% mg, and 22-26 capsules are then packaged in HDPE bottles (Drug Plastic, Boyertown, Pa., US), followed by sealing the HDPE bottle within a foil pouch (without desiccant). Packages are stored in stability chambers at the following storage conditions: −20° C., 25° C./60% RH, and 40° C./75% RH. Samples are removed for testing at 1, 3, and 6 months (Table 38). For tests except the aerodynamic particle size distribution, encapsulated powder was removed from the capsule and mixed in a glass vial by rotating the vial.
Geometric particle size distribution. GPSD of CSP7 powder was analyzed before and after milling using a Sympatec HELOS laser diffraction instrument (Sympatec GmbH, Germany) equipped with RODOS dispersion. Measurements are taken every 10 ms following powder dispersion at 3 bar. Measurements that are between 5 and 25% optical density were averaged to determine particle size distribution. The particle sizes by volume are reported at percentiles of 10, 50, and 90 (e.g., Dv 10, Dv 50, and Dv 90), respectively, as well as the percentages of particles falling into 1-5 μm size range. The results are shown in 41.

The nature of data set [2]: Stability study of milled CSP7 (ammonium counterion): aerodynamic particle size distribution by NGI. The conditions noted are these: Lot#UTA181028; Unprocessed. Type of data set: physicochemical. The protocol:
Determination of aerodynamic particle size distribution of milled CSP7 bulk powder. Around 3.5 mg of milled CSP7 powder was manually filled into size 3 HPMC capsules (Capsugel, Peapack, N.J.). CSP7 capsules were then aerosolized using a RS01 Monodose Dry Powder Inhaler (high resistance) and aerodynamic particle size distribution was measured by a Next Generation Impactor (NGI, MSP Corp., Shoreview, Minn.). Aerosols were produced over 4 s at an air flow rate of 60 L/min for the inhaler to achieve an inhalation volume of 4 L and 4 kPa pressure drop across the device. Before each run, NGI collection surfaces were coated with 5% (v/v) polysorbate 20 in methanol. One capsule was shot for each run and each sample was ran in triplicate repetitions (three capsules). After aerosolization, all collection surfaces were rinsed with specific volumes of 20 mM Tris buffer (pH 10.3) to collect the drug. Powders deposited in the capsule, device, adaptor, throat, pre-separator, and stages 1-MOC were extracted respectively.
For each test, delivered dose is defined as the mass of CSP7 that entered the NGI. Geometric standard deviation (GSD), mass median aerodynamic diameter (MMAD) and fine particle fraction % (FPF %) are calculated and analyzed with Copley Inhaler Testing Data Analysis Software (CITDAS, Copley Scientific, Nottingham UK), based on the doses deposited on stages 1-MOC of NGI. The FPF is defined as the mass fraction of particles less than 5.0 μm with the delivered dose.
as §1
Aerodynamic particle size distribution: The aerodynamic particle size distribution was evaluated by performing NGI as described in Example 1, except that the powder weight in the tested capsule was 11±5% mg and pre-separator was removed in the assembly of the NGI in stability study.

A short description of data set [3]: physchem. The data set is classed as physicochemical. The protocol:
Solubility of neat (i.e., not milled) CSP7 ammonium counterion form (Table 35) was performed by adding excess amount of peptide powder into 3 mL different pH buffers (Table 36) and mixing on orbital shaker at 100 rpm for 24 hours at room temperature. The solubility and freeze-thaw samples were filtered through a 0.45 μm membrane prior to being assayed by performing High Performance Liquid Chromatography (HPLC, Thermo Fisher Scientific, Fair Lawn, N.J.). Briefly, samples were analyzed using Dionex 3000 HPLC system equipped with a Waters® reversed phase C18 column 2.5 μm, 150 mm×4.60 mm. The HPLC column was heated to 60° C. for testing, and the peptide was detected at a wavelength of 215 nm and a 1 mL/min flow rate. The two mobile phases were A (0.1% acetic acid in water) and B (0.1% acetic acid in acetonitrile). The injection volume was 20 μL and the standard curve was plotted from 0.01-1 mg/ml.

A short description of data set [4]: pH-solubility of polypeptide variants. The data set is classed as physicochemical. Here is the method: Solubility study of variants was performed by adding variants powders into solvent in concentration of 5 mg/ml and then vortexing for 3 min. Observe the appearance of solutions in 5 min. Add more powder (˜5 mg/ml each time) and repeat vortex and observe until precipitation or gelation occurs.

In data set [5] the test system is Bleomycin Induced Lung Fibrosis. The experiment in a line: Bleomycin induced lung fibrosis in mice, Ashcroft score. The data set is classed as in vivo. The conditions noted are these: dry powder inhalation after bleomycin induction, vs bleomycin only. The protocol: Preparation and lysis of lung tissues. Female mice, ages 6-8 weeks are ordered from Jackson Laboratories, stock: 000664 C57BL/6J are cared for and housed according to IACUC guidelines. The following week, mice are weighed, anesthetized with an IP injection of 80 mg/kg Ketamine & 6 mg/kg Xylazine (approx. 115 ul/mouse) and subjected to a single intratracheal installation of bleomycin. Briefly, a 26G plastic catheter is inserted into the trachea and mice receive, via pipette, 2×20 ul installations (spaced 30 s apart to allow clearance from the airways) of 0.8 U/kg bleomycin (Biotang, Cat #RB003). Controls receive the same volume of saline only. Weight is tracked (approximately 10% weight loss occurs in injured animals) and animals are subjected to a dry powder inhalation protocol (CH technologies) daily for one week. […] Images were captured with Aperio AT2 high volume, digital whole slide scanner and lungs were scored for fibrotic injury according to modified Ashcroft scoring protocol (Hubner et al., 2008, incorporated herein by reference). […] The colormetric assay was read on a microplate reader (FilterMax F5, Molecular Devices, 580 nm). […]
Lung tissues were homogenized and collagen content was analyzed using the Quickzyme collagen assay (FIG. 30). […]

The nature of data set [6]: Geometric particle size by Sympatec laser diffraction, wet dispersion. The data set is classed as physicochemical. Here is the method: The particle sizes were next determined by Sympatec laser diffraction by a wet dispersion method. CSP7 was dissolved in ethanol +0.05% Tween 80 as dispersion medium and sonicated 10 min.

By solubility (thermodynamic) is commonly meant solubility found after equilibrating the solid with the medium. Turning to `CC(C)[C@H](NC(=O)[C@@H](NC(=O)[C@H](Cc1ccccc1)NC(=O)[C@@H](NC(=O)[C@@H](NC(=O)[C@@H](N)Cc1ccccc1)[C@@H](C)O)[C@@H](C)O)[C@@H](C)O)C(=O)N[C@H](C(=O)O)[C@@H](C)O` [CSP7 (ammonium counterion), FTTFTVT] (H-FTTFTVT-OH; N-terminus and C-terminus assumed), in data set [1], the “% 1-5 μm” value is on record as 47.0 ± 0.9%. Besides, the “Dv 10” value in data set [1] was 1.2 ± 0 μm. Besides, the “Dv 50” value in data set [1] is 4.5 ± 0.1 μm. Moreover, the “Dv 90” value in data set [1] is on record as 15.7 ± 0.8 μm. In addition, the EF % in data set [2] turned out to be 92.8%. Further, in data set [2], the FPD was found to be 4.2 mg. Further, the FPF % in data set [2] is given as 48.4%. The molecule also came in with a GSD in data set [2] of 4.67. The MMAD in data set [2] is 3.09 μm. Besides, the solubility (thermodynamic) at 24 h was 170 µg/mL in data set [3] (pH 3, aqueous buffer); 70 µg/mL in data set [3] (pH 4, aqueous buffer); 50 µg/mL in data set [3] (pH 5, aqueous buffer); 70 µg/mL in data set [3] (pH 6, aqueous buffer); 100 µg/mL in data set [3] (pH 7, aqueous buffer); 380 µg/mL in data set [3] (pH 8, aqueous buffer). In addition, the solubility (thermodynamic) at 24 h was determined as 2300 µg/mL in data set [3] (pH 9, aqueous buffer); 7870 µg/mL in data set [3] (pH 10, aqueous buffer); 14400 µg/mL in data set [3] (pH 11, aqueous buffer).

For `CC(C)[C@H](NC(=O)[C@@H](NC(=O)[C@H](Cc1ccccc1)NC(=O)[C@@H](NC(=O)[C@@H](NC(=O)[C@@H](N)Cc1ccccc1)[C@@H](C)O)[C@@H](C)O)[C@@H](C)O)C(=O)N[C@H](C(=O)O)[C@@H](C)O` [CSP7, FTTFTVT] (H-FTTFTVT-OH; N-terminus and C-terminus assumed), the thermodynamic solubility at 3 min in data set [4] (pH 4.5) came to 150 µg/mL (≈ 184 µM); in data set [4] (pH 5.5), 160 µg/mL (≈ 196 µM); in data set [4] (pH 6.5) it was 160 µg/mL (≈ 196 µM); in data set [4] (pH 7.5) it was 310 µg/mL (≈ 380 µM); in data set [4] (pH 8.5) it was 1430 µg/mL (≈ 1750 µM). For the same molecule, in data set [5], the Ashcroft score entry is recorded as “lower”. Further, the “Dv 50” value in data set [6] was determined as 29.0±0.8 μm.

Values taken from patent publication US12280088B2, “Dry powder formulation of caveolin-1 peptides and methods of use thereof” (BOARD OF REGENTS, THE UNIVERSITY OF TEXAS SYSTEM, priority 2018, dated 2025).
